ChEMBL document CHEMBL5055651, “Synthesis of small molecules targeting paclitaxel-induced MyD88 expression in triple-negative breast cancer cell lines” (Bioorg Med Chem, 2021)
pIC50: −log10 of the molar value.

Tests used:
[1] = system: MDA-MB-231; experiment: Cytotoxicity against human MDA-MB-231 cells expressing TLR4 assessed as reduction in cell viability measured after 96 hrs by MTT assay; format: functional, cell-based; conditions: MDA-MB-231, 96 h
[2] = system: HCC1806; experiment: Cytotoxicity against human HCC1806 cells assessed as reduction in cell viability measured after 96 hrs by MTT assay; format: functional, cell-based; conditions: HCC1806, 96 h
[3] = system: MCF7; experiment: Cytotoxicity against human MCF7 cells expressing TLR4 assessed as reduction in cell viability measured after 96 hrs by MTT assay; format: functional, cell-based; conditions: MCF7, 96 h
[4] = system: BEAS-2B; experiment: Cytotoxicity against human BEAS-2B cells reduction in cell viability measured after 96 hrs by MTT assay; format: cell-based
[5] = Effect on MyD88 expression in human MDA-MB-231 cells expressing TLR4 at 0.1 to 10 uM after 24 hrs by ELISA; format: cell-based; conditions: mda-mb-231, 24 h, dose 0.1-10 µM
[6] = Suppression of MyD88 expression in human MDA-MB-231 cells expressing TLR4 at 0.1 uM pretreated with compounds for 24 hrs followed by PTX challenge and measured after 24 hrs by ELISA relative to control; format: functional; conditions: time 48 hrs
[7] = Suppression of MyD88 expression in human MDA-MB-231 cells expressing TLR4 at 1 uM pretreated with compounds for 24 hrs followed by PTX challenge and measured after 24 hrs by ELISA relative to control; format: functional; conditions: time 48 hrs
[8] = Suppression of MyD88 expression in human MDA-MB-231 cells expressing TLR4 at 10 uM pretreated with compounds for 24 hrs followed by PTX challenge and measured after 24 hrs by ELISA relative to control; format: functional; conditions: time 48 hrs
[9] = system: MDA-MB-231; experiment: Cytotoxicity against human MDA-MB-231 cells expressing TLR4 assessed cell growth inhibition at 10 uM measured after 96 hrs by MTT assay relative to control; format: functional; conditions: read-out: GI
[10] = system: HCC1806; experiment: Cytotoxicity against human HCC1806 cells assessed cell growth inhibition at 10 uM measured after 96 hrs by MTT assay relative to control; format: functional; conditions: read-out: GI
[11] = system: MCF7; experiment: Cytotoxicity against human MCF7 cells expressing TLR4 assessed cell growth inhibition at 10 uM measured after 96 hrs by MTT assay relative to control; format: functional; conditions: read-out: GI
[12] = system: MDA-MB-231; experiment: Cytotoxicity against human MDA-MB-231 cells expressing TLR4 assessed as cell viability at 10 uM measured after 96 hrs by MTT assay relative to control; format: functional; conditions: read-out: Activity
[13] = system: HCC1806; experiment: Cytotoxicity against human HCC1806 cells assessed as cell viability at 10 uM measured after 96 hrs by MTT assay relative to control; format: functional; conditions: read-out: Activity
[14] = system: MCF7; experiment: Cytotoxicity against human MCF7 cells expressing TLR4 assessed as cell viability at 10 uM measured after 96 hrs by MTT assay relative to control; format: functional; conditions: read-out: Activity
[15] = Selectivity index, ratio of IC50 for human BEAS-2B cells to IC50 for human MDA-MB-231 cells; format: toxicity; conditions: BEAS-2B cells versus MDA-MB-231 cells, read-out: Selectivity Index
[16] = Selectivity index, ratio of IC50 for human BEAS-2B cells to IC50 for human MCF7 cells; format: toxicity; conditions: BEAS-2B cells versus MCF7 cells, read-out: Selectivity Index
[17] = system: MDA-MB-231; experiment: Cytotoxicity against human MDA-MB-231 cells expressing TLR4 assessed as growth inhibition measured after 96 hrs by MTT assay; format: functional, cell-based; conditions: MDA-MB-231, 96 h
[18] = system: HCC1806; experiment: Cytotoxicity against human HCC1806 cells assessed as growth inhibition measured after 96 hrs by MTT assay; format: cell-based; conditions: HCC1806, 96 h

Q: With `O=C(C1=C(O)/C(=C/c2ccc(C(F)(F)F)cc2)CCC1)c1ccccc1` as the compound, how does the pIC50 [1] read?
A: 5.19

Q: And the pIC50 [2]?
A: 5.27

Q: What about the pIC50 [3] of the same compound?
A: 5.64

Q: What about the pIC50 [4] of the same compound?
A: 5.42

Q: And the Activity [5]?
A: 23%

Q: And the Activity [6]?
A: 17.64%

Q: What about the Activity [7] of the same compound?
A: 24.77%

Q: What about the Activity [8] of the same compound?
A: 27.94%

Q: And the inhibition of growth at 10 µM [9]?
A: 8%

Q: And the inhibition of growth at 10 µM [10]?
A: 8%

Q: What about the inhibition of growth at 10 µM [11] of the same compound?
A: 8%

Q: With `COc1cc(C)ccc1/C=C1\CCCC(C(=O)c2ccccc2)=C1O` as the compound, how does the viability at 10 µM [12] read?
A: 87%

Q: What about the viability at 10 µM [13] of the same compound?
A: 87%

Q: What about the viability at 10 µM [14] of the same compound?
A: 87%

Q: With `CC(=O)O[C@H]1C(=O)[C@@]2(C)[C@H]([C@H](OC(=O)c3ccccc3)[C@]3(O)C[C@H](OC(=O)[C@H](O)[C@@H](NC(=O)c4ccccc4)c4ccccc4)C(C)=C1C3(C)C)[C@]1(OC(C)=O)CO[C@@H]1C[C@@H]2O` [PACLITAXEL] as the compound, how does the pIC50 [1] read?
A: 7.40

Q: What about the pIC50 [2] of the same compound?
A: 8.05

Q: And the pIC50 [3]?
A: 7.52

Q: And the pIC50 [4]?
A: 8.10

Q: And the selectivity ratio [15]?
A: 0.2

Q: What about the selectivity ratio [16] of the same compound?
A: 0.26

Q: What about the pIC50 [17] of the same compound?
A: 7.57

Q: And the pIC50 [18]?
A: 8.10
